Source: BindingDB's records for patent US11926628 (Gilead Sciences, 2024)

biological target: Diacylglycerol kinase alpha (Homo sapiens, UniProt P23743); test: DGKα Biochemical Activity Assay
Procedure: Ten nanoliters of test compound dissolved in DMSO at various concentrations were dispensed into a 384-well low volume nonbinding service white plates (Corning #3824) using a Labcyte Echo instrument. Recombinant DGKα (Carna Biosciences) in assay buffer (5 μL in 50 mM MOPS [3-(N-morpholino) propanesulfonic acid], pH 7.2; 0.0025% Triton X-100; 1 mM dithiothreitol; 5 mM MgCl2, 200 μM ATP) was added to the compound-containing plate and was incubated for 15 minutes at 25° C. A substrate solution (5 μL in 1.7 mM 1,2-dioleoyl-sn-glycerol [18:1 DAG], 13.5 mM 1-palmitoyl-2-oleoyl-sn-glycero-3-phospho-L-serine [16:0-18:1 PS](POPS), 2 μM CaCl2, 100 mM Octylglucoside (OG), 1 mM DTT) (obtained from Carna Biosciences) diluted in DGK ALPHA assay buffer was then added to start the reaction. Final concentrations were 1 nM DGKα, 100 μM ATP, 1 μM calcium chloride, 0.85 mM 1,2-dioleoyl-sn-glycerol (18:1 DAG), 6.75 mM 1-palmitoyl-2-oleoyl-sn-glycero-3-phospho-L-serine (16:0-18:1 PS) (POPS), 1 μM CaCl2), 50 mM Octylglucoside (OG) and 5 mM MgCl2. The reaction mixture was incubated at 25° C. for 1 hour. ADP-Glo Reagent (10 μL, 10 mM Mg added) provided by the kit was added to each well and incubated at 25° C. for 40 minutes. Then, 20 μL of Kinase Detection Reagent was added and incubated at 25° C. for 40 minutes. Luciferase activity of each well was measured via luminescence on an Envision plate reader (PerkinElmer).

Sequence of Diacylglycerol kinase alpha (P23743 whole entry): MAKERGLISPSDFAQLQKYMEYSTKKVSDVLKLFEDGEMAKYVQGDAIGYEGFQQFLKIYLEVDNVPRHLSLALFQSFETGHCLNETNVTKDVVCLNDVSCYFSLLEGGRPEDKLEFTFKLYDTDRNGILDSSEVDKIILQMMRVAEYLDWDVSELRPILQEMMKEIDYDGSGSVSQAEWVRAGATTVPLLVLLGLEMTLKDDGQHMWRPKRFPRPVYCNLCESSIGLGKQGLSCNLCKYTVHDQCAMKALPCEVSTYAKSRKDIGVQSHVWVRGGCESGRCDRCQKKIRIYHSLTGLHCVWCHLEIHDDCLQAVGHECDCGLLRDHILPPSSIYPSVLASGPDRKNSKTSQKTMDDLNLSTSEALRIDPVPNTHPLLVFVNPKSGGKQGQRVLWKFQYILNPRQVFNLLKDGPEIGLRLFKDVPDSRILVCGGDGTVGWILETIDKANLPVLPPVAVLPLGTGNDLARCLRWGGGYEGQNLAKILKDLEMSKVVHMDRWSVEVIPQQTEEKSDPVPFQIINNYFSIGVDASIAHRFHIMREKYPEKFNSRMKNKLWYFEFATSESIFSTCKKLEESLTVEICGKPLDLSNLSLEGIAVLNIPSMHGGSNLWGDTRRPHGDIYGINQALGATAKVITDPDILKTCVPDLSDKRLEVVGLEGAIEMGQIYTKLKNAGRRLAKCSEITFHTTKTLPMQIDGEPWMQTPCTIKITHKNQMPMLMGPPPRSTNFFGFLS

SMILES	IC50 [nM]
Cc1nnc2nc(N3CCCc4c(C#CC5(C(F)(F)F)CC5)cccc43)c3c(F)cncc3n12 [US11926628, Example 41]	7.82
CN(c1cccc(C#CC(C)(C)C)c1)c1nc2nncn2c2cnccc12 [US11926628, Example 60]	61.5
Cc1nnc2nc(N3CCCCc4c(C#CC(C)(C)C#N)cccc43)c3c(F)cncc3n12 [US11926628, Example 64]	5.79
CN(C)c1ccc2c(N(C)c3cccc(C#CC(C)(C)C)c3)nc3nncn3c2n1 [US11926628, Example 110]	930
COc1ccc(-c2cccc(N(C)c3nc4nncn4c4nc(N(C)C)ccc34)c2)cn1 [US11926628, Example 111]	375
CN(C)c1ccc2c(N(C)c3cccc(-c4ccc(C5CC5)cc4)c3)nc3nncn3c2n1 [US11926628, Example 112]	66.7
CCOc1ccc2c(N(C)c3cccc(-c4ccc(C5CC5)cc4)c3)nc3nncn3c2n1 [US11926628, Example 113]	702
